Assay results: US20160129078A1, “Rhomboid Proteins and Uses Thereof” (Queen's University at Kingston, priority 2014, published 2016)

Assays:
[1] = system: ampicillin resistant E. coli; assay: Sensitization of bacteria to ampicillin by exogenous rhomboid protein; assay type: cell-based, Escherichia coli
Method: Experiments were conducted to assess the ability of At1g74130 proteins or variants to sensitize bacteria to the antibiotic ampicillin, using “super-resistant” E. coli (multi-copy pET20b plasmid-based ampicillin-resistant lab strains). This model is considered the so-called “SuperBug” model, as commonly referred to in the public domain and media.
Control assays were conducted on cells without added At1g74130 or variants (sensitizing variants) to determine the delivery system to use and the appropriate levels of ampicillin to use. Control assays were also conducted to determine if the 5% (v/v) DMSO delivery system exerted any effects. Bacterial cells, usually 800-1000, were mock treated with Luria Broth (LB) media or 5% (v/v) DMSO for 15 minutes prior to exposure to a 30-45 minute exposure to ampicillin (1.25 mg/ml or 1.5 mg/ml). Total volumes of 200 μl were used in these assays. The treated-exposed cells were then plated onto non-selective LB agar plates and allowed to grow overnight to assess the level of cell death or susceptibility to ampicillin. The ampicillin range found useful for these assays was between 1.25 mg/ml to 1.5 mg/ml. This range mirrored the observations reported in an earlier section above with transgenic bacterial cells and ampicillin susceptibility. […]

[2] = system: yeast; assay: Sensitization of yeast to fungicidal agents AmB and Nys; assay type: cell-based, Saccharomyces cerevisiae; settings: for yeast cell survival, fungicide alone: sub-lethal levels (1% AmB, 0.5% Nys), no rhomboid protein; for sensitization of yeast to antifungals AmB and Nys: exogenous protein co-delivered with sub-lethal AmB and Nys, as Example 13
Method: Experiments were conducted to assess the ability of the Arabidopsis At1g74130 proteins or variants to sensitize yeast to the antifungal agents Amphotericin B (AmB) and Nystatin (Nys). Overall, these assays were conducted in a manner similar to that designed for bacteria (Example 9). In addition to the components mixed with the added proteins or variants, the antifungal AmB was also utilized as part of the delivery system. The AmB drug contains small quantities of the detergent deoxycholate, which may also assist in the delivery of proteins into the cell, as well as function as a pore forming agent itself. […] The effective co-delivery sub-lethal concentrations of the two antifungal agents or protein had little or no effect when provided individually. FIGS. 17 and 18 show results of the yeast sensitivity assays for AmB and Nys. […] In FIG. 17, the “Yeast Control” bars represent yeast cells given mock treatments with culture media (YPD) alone, YPD plus 1% AmB, YPD plus 0.5% Nys, and YPD plus 1% AmB and 0.5% Nys, respectively. The “BSA Control” bars represent another set of mock treatments with yeast cells. This set utilized the same set-up as the Yeast Control set but with added control bovine serum albumin proteins (BSA) (dissolved in the elution buffer, the same buffer used for the purification of the recombinant At1g74130 rhomboid proteins or variants). These assays represent another variation of negative controls for rhomboid protein. The “Elution Control” bars represent yeast cells mock treated using the same set-up as in the Yeast Control set but with added elution buffer alone. This variation of control assays was designed to assess for potential toxic impacts when combining elution buffer and the listed drugs, as well any effects originating from components of the elution buffer itself. The composition of the elution buffer is provided above in Example 5. With the exception of Nys, these treatments represent the first step and occur for 45 minutes before the second step when exposure to fungicides takes place. Within each set of bars, where applicable, the second 15-minute step treatment occurred with a sub-lethal dose of Nys. After a total of one hour, the treated yeast cells were plated on non-selective YPD agar plates. Plates were grown 2-3 days at 27-30° C. and assessed for surviving cell numbers (measuring cell death). Images were also taken to document cell and colony growth characteristics.
In the experimental assays, the sensitizing properties of At1g74130 or variants (sensitizing variants) were tested by adding 10 ug protein (At1g74130 or variants in elution buffer) to yeast cells (300-500 cells). To reiterate in all cases, the components were added to cultures and mixed for one hour, where Nys was added and incubated for the last 15 minutes of the treatment. Pre-treatment was designed to permit AmB and At1g74130 proteins to establish and work prior to adding Nys. After the one hour incubation, 500 cells were plated on non-selective YPD agar media and grown for 48 hours at 30′C.
The sub-lethal levels of fungicides to use in these assays were determined using dosage experiments. These assays were conducted on yeast cells without added rhomboid proteins or variants. The dosages of AmB tested ranged from 0 to 5% (v/v). […] Likewise, the Nys level was determined using a range of 0.5 to 2.5%. Yeast cells were treated for one hour with fungicides in a total volume of 400 μl YPD media before plating.
Since both the AmB buffer contained small quantities of detergent (deoxycholate being the main one), an experiment was done in which different amounts (1% and 10%) of deoxycholate were added to yeast cells to ascertain any effects. Adding deoxycholate had little effect on yeast.
This set of yeast assays was conducted in the same manner described above (Example 13) and employed the same controls and combinations. […]

[3] = system: yeast; assay: as above; assay type: cell-based, Saccharomyces cerevisiae; settings: range of 0 to 1% (v/v), no rhomboid protein, one hour
[4] = system: bacteria; assay: Sensitization of bacteria to tetracycline by exogenous rhomboid protein; assay type: cell-based, Escherichia coli; settings: tetracycline 15 ug/ml
Method: Experiments were conducted to assess the ability and the utility of At1g74130 protein variants to sensitize bacteria to another antibiotic, tetracycline. In bacteria, tolerance or resistance to tetracycline is facilitated by a mechanism different from the ampicillin resistance assayed in Example 9. Unlike the breakdown of ampicillin outside the bacterial cells by secreted ampicilliase, tetracycline resistance in bacteria is based largely on the continual and effective pumping of tetracycline out of the cell by proteinaceous membrane pumps. To assess the utility of the At1g74130 for sensitizing bacteria to tetracycline, these bacterial assays were conducted in the same manner described in Example 9. The same controls and combinations were used. The final treatment level of tetracycline used in place of the ampicillin treatment was 15 ug/ml.
Experiments were conducted to assess the ability and the utility of a human rhomboid type or variant to sensitize bacteria to tetracycline. These bacterial assays were conducted in the same manner described above for the other rhomboid variants and in Example 9. The same controls and combinations were used. The At1g74130 L was the control for UBAC2 in this set of assays. The previously observed behaviours and responses were not observed for UBAC2 in this setting with the antibiotic tetracycline (FIG. 16).

**Q.** Which “effect on bacteria when provided individually” value ([1]; effective co-delivery concentration, without protein) does the source give for `CC1(C)S[C@@H]2[C@H](NC(=O)[C@H](N)c3ccccc3)C(=O)N2[C@H]1C(=O)O` [ampicillin, reference compound] here?
**A.** no effects

**Q.** For `C[C@@H]1[C@H](O)[C@@H](C)/C=C/C=C/C=C/C=C/C=C/C=C/C=C/[C@H](O[C@@H]2O[C@H](C)[C@@H](O)[C@H](N)[C@@H]2O)C[C@@H]2O[C@](O)(C[C@@H](O)C[C@@H](O)[C@H](O)CC[C@@H](O)C[C@@H](O)CC(=O)O[C@H]1C)C[C@H](O)[C@H]2C(=O)O` [AmB, Amphotericin B, reference compound], which “yeast cell survival, fungicide alone” value [2] is on record?
**A.** small reduction in yeast cell survival

**Q.** What about the “surviving yeast colonies in dosage experiment” value [3] of the same molecule?
**A.** no significant differences

**Q.** `C[C@@H]1[C@H](O)[C@@H](C)/C=C/C=C/CC/C=C/C=C/C=C/C=C/C(O[C@H]2O[C@H](C)[C@@H](O)[C@H](N)[C@@H]2O)CC2O[C@](O)(CC(O)C(O)CCC(O)CC(O)CC(O)CC(=O)O[C@H]1C)CC(O)C2C(=O)O` (stereo partly drawn) [Nys, Nystatin, reference compound] was tested. Which “yeast cell survival, fungicide alone” value [2] did it give?
**A.** small reduction in yeast cell survival

**Q.** How did the effect on yeast ([2]; 1% and 10% added to yeast cells) turn out when deoxycholate was run?
**A.** little effect

B1: At1g25290 L: L-form Arabidopsis At1g25290 rhomboid protease, contains the RVL cyclin-binding domain (protein, listed as Arabidopsis thaliana)
chain: MVSVSLSHHNLWPPESGSTAFRGFATAASVHACHHVSRHLRLDFHLRSSLKKLQHFSDDARMKFARYQRVFVFNGANFLKSRVDIRLSQSSPFVCFFNGGESRLNPRGGEEGSSNPETSKRNTVNGRRWTNVLLAINVIMYIAQIASDGKVLTWGAKINSLIERGQLWRLATASVLHANPMHLMINCYSLNSIGPTAESLGGPKRFLAVYLTSAVARVLGSAMSYWFNKAPSVGASGAIFGLVGSVAVFVIRHKQMVRGGNEDLMQIAQIIALNMAMGLMSRR
**Q.** With B1 as the molecule, how does the “sensitization of bacteria to ampicillin” value ([1]; exogenous protein, same manner as Example 9) read?
**A.** no activity

**Q.** What about the “sensitization of yeast to antifungals AmB and Nys” value [2] of the same molecule?
**A.** no activity

B2: UBAC2: human UBAC2 isoform 1, fusion between a rhomboid pseudoprotease sequence and ubiquitin-associating domains (protein, listed as Homo sapiens)
chain: MQYFFGITAASNLPSGFLAPVFALFVPFYCSIPRVQVAQILGPLSITNKTLIYILGLQLFTSGSYIWIVAISGLMSGLCYDSKMFQVHQVLCIPSWMAKFFSWTLEPIFSSSEPTSEARIGMGATLDIQRQQRMELLDRQLMFSQFAQGRRQRQQQGGMINWNRLFPPLRQRQNVNYQGGRQSEPAAPPLEVSEEQVARLMEMGFSRGDALEALRASNNDLNVATNFLLQH
**Q.** What does the source list for B2?
**A.** sensitization of yeast to antifungals AmB and Nys [2]: increased the sensitivity; sensitization of bacteria to tetracycline [4]: not observed
